{"source": "patent US20070082910A1", "about": "“Specific nad(p)h oxidase inhibitor” (Mitsubishi Pharma Corporation, priority 2003, published 2007)", "test_system": "NAD(P)H oxidase in normal rat aorta", "experiment": "Effect on normal rat NAD(P)H oxidase (superoxide anion production in aorta after administration)", "assay_type": "in vivo", "settings": "10 mg/kg for 3 days", "method": "The test compound (10 mg/kg) was administered to normal male Wistar rats (Japan SLC) for 3 days, and the production amount of superoxide anion in the aorta was measured in the same manner as in Experimental Example 2.\nThe inhibitory rate (%) was calculated by the following formula: inhibitory rate (%)=100−(A/B)×100 wherein A is the standardized chemiluminescence value of the rats administered with the test compound, and B is the standardized chemiluminescence value of the rats without administration of the test compound (control group)."}
{"molecule": "C[C@@H](Nc1nnc(-c2ccccc2)c2ccccc12)C1CCCCC1.O=C(O)/C=C\\C(=O)O", "note": "[compound A]", "values": [{"measurement": "inhibitory rate (%), NAD(P)H oxidase in normal rat aorta", "result": 1.8, "unit": "%"}, {"measurement": "effect on superoxide anion production in normal rat", "setting": "result in words", "result": "did not affect the superoxide anion production"}, {"measurement": "chemiluminescence (×10^5 RLU/wet weight of aorta)", "setting": "normal rat aorta, mean ± standard error", "result": "3.89 ± 3.0 ×10^5 RLU/wet weight of aorta"}]}
